# US9341616B2, “Sweet taste receptor chimeric proteins and use thereof” (AJINOMOTO CO., INC., priority 2014, dated 2016)
# Residues, ends and D or L forms follow the SMILES beside them.
# Biological target: h-mT1R2-481/T1R3mosaicC (UniProt Q8TE23+Q925D8, A537S/A558R/A564V/A568V/A570T/A588V/A645S/A649T/A658V/A698V/A702T/A782V/A793V/A807V/C582S/C678S/D172E/D176A/D217E/E221Q/E530V/E534N/E542M/E548N/E725V/F525Y/F541I/F612A/F622V/F665L/F695L/G696N/G701T/H484Y/H528R/H728R/I481V/I486P/I490V/I510L/I518V/I595M/I617V/I643V/I645L/I692L/I695G/I706V/I740A/I803L/K504M/K555R/K565R/K626T/K714N/K818R/K827G/L521P/L560F/L571I/L578I/L610P/L631F/L636F/L639V/L684P/L688V/L702I/L734M/L735F/L800F/L823M/L825Q/M492I/M616G/M644L/M682V/M690V/M744T/M748V/N203E/N231A/N540G/N541S/N547G/N675D/N721H/P545F/P561R/P564S/P638T/P824S/Q195T/Q536L/Q546K/Q550E/Q555R/Q611L/Q676H/Q757R/Q795R/Q831P/R173L/R498S/R632Q/R667S/S168G/S205G/S228A/S501P/S547N/S550A/S576L/S595F/S610P/S628F/S635P/S637R/S663R/S670G/S679G/S681F/S703N/S717H/S727G/S784D/S804G/T199E/T529S/T542A/T549I/T609V/T629S/T642S/T663I/T694M/T705I/T706G/T716I/T813A/V197A/V198A/V508I/V512P/V557A/V573A/V584A/V585L/V613L/V617M/V673M/V687A/V691A/V694A/V718L/V718M/V723A/V729T/V738A/V741L/V774I/V791M/V805L/V812A/V821L/W599R/W676R/W824R/Y533F/Y615F/Y671F/Y680C/Y769S/Y783H/Y794L)
# Conditions: Table 6; genes h-mT481/T1R3mC (h-mT1R2-481, T1R3mC); HEK293E cells
# Sequence of h-mT1R2-481/T1R3mosaicC (Q8TE23 with tags, fused parts or gaps with the stated changes limits assumed): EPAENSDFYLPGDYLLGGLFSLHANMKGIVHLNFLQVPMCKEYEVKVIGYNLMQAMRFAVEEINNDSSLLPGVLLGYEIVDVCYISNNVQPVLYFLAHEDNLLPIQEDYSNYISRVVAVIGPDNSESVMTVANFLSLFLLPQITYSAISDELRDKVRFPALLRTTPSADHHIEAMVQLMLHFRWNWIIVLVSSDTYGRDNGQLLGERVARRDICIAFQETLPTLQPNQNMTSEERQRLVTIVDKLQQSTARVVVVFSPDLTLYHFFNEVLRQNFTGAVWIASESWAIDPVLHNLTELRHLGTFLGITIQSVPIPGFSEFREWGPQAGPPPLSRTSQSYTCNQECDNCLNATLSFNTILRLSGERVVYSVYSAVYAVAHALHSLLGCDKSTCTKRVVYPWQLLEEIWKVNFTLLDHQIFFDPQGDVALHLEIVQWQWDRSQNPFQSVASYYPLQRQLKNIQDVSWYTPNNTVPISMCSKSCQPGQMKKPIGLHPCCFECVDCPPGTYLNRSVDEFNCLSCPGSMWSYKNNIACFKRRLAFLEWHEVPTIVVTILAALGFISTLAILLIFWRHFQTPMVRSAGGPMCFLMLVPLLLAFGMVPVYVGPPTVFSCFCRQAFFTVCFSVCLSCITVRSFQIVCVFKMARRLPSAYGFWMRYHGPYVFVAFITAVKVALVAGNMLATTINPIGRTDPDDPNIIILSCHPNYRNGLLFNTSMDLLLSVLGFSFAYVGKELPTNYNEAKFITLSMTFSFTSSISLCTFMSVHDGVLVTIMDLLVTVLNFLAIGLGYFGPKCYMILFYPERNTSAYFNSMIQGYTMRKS
# Sequence of h-mT1R2-481/T1R3mosaicC (Q925D8 with tags, fused parts or gaps with the stated changes limits assumed): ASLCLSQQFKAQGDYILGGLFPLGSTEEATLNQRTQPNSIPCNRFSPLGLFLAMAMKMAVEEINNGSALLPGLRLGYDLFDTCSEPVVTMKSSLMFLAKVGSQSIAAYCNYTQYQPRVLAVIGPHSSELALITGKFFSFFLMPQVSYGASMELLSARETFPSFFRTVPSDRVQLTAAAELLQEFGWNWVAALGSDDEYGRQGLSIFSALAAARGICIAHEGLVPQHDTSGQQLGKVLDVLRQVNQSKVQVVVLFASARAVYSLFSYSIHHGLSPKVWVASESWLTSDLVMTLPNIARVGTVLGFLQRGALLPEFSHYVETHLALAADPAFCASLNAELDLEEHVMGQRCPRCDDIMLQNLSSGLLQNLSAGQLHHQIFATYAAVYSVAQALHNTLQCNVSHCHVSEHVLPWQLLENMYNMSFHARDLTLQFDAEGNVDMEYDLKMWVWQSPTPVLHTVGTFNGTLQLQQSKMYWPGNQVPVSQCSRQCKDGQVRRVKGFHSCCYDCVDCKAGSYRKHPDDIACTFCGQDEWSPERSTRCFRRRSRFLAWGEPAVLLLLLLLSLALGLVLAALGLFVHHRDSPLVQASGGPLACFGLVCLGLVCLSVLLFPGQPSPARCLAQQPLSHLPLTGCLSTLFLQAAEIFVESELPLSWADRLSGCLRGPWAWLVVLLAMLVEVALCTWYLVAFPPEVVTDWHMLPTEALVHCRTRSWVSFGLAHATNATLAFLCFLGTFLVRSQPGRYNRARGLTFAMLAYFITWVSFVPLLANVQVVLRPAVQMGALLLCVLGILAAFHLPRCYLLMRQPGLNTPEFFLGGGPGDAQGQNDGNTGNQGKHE
row,SMILES,S/N
1,"OC[C@H]1O[C@H](O[C@]2(CCl)O[C@H](CCl)[C@@H](O)[C@@H]2O)[C@H](O)[C@@H](O)[C@H]1Cl [Sucralose, sucralose]",4.8
2,"C[C@H](NC(=Nc1ccc(C#N)cc1)NCC(=O)O)c1ccccc1 [SC-45647, [3-[(S)-1-phenylethyl]-2-(4-cyanophenyl)guanidino]acetic acid]",6.1
3,"COc1ccc(CCC(=O)c2c(O)cc(O[C@@H]3O[C@H](CO)[C@@H](O)[C@H](O)[C@H]3O[C@@H]3O[C@@H](C)[C@H](O)[C@@H](O)[C@H]3O)cc2O)cc1O [NHDC, neohesperidin dihydrochalcone]",3.9
4,"COC(=O)[C@H](Cc1ccccc1)NC(=O)[C@H](CC(=O)O)NCCCc1ccc(OC)c(O)c1 [Advantame, advantame]",9.9
5,"COC(=O)[C@H](Cc1ccccc1)NC(=O)[C@H](CC(=O)O)NCCC(C)(C)C [Neotame, neotame]",8.4
6,"COC(=O)[C@H](Cc1ccccc1)NC(=O)[C@@H](N)CC(=O)O [Aspartame, aspartame] (HELM PEPTIDE1{D.F.[CO[*:1]]}$$$$V2.0)",6.3
7,"OC[C@H]1O[C@@](CO)(O[C@H]2O[C@H](CO)[C@@H](O)[C@H](O)[C@H]2O)[C@@H](O)[C@@H]1O [Sucrose, sucrose]",3.4
8,"CC1=CC(=O)NS(=O)(=O)O1 [Acesulfame K, acesulfame potassium]",3.2
9,"O=C1NS(=O)(=O)c2ccccc21.[Na] [Saccharin Na, sodium saccharin]",4.5
